In patent US10723707B2, “Heterocyclic substituted 2-amino quinazoline derivatives for the treatment of viral infections” (JANSSEN SCIENCES IRELAND UNLIMITED COMPANY, priority 2012, dated 2020):

Tests used:
Assay type in all cases: cell-based
[1] = test system: interferon-stimulated responsive elements (ISRE); test: Activation of ISRE promoter elements in HEK-ISREluc cells by conditioned media from PBMC; conditions: Homo sapiens, compound concentration applied to PBMCs, supernatant transferred to HEK-ISREluc cells, 24 hours, read-out: HEK-ISRE luc (LEC)
Description: The potential of compounds to induce IFN-I was also evaluated by measuring the activation of interferon-stimulated responsive elements (ISRE) by conditioned media from PBMC. The ISRE element of sequence GAAACTGAAACT (SEQ ID: 1) is highly responsive to the STAT1-STAT2-IRF9 transcription factor, activated upon binding of IFN-I to their receptor IFNAR (Clontech, PT3372-5W). The plasmid pISRE-Luc from Clontech (ref. 631913) contains 5 copies of this ISRE element, followed by the firefly luciferase ORF. A HEK293 cell line stably transfected with pISRE-Luc (HEK-ISREluc) was established to profile the conditioned PBMC cell culture media.
Briefly, PBMCs were prepared from buffy coats of at least two donors using a standard Ficoll centrifugation protocol. Isolated PBMCs were resuspended in RPMI medium supplemented with 10% human AB serum and 2×10^5 cells/well were dispensed into 384-well plates containing compounds (70 μL total volume). After overnight incubation, 10 μL of supernatant was transferred to 384-well plates containing 5×10^3 HEK-ISREluc cells/well in 30 μL (plated the day before). Following 24 hours of incubation, activation of the ISRE elements was measured by assaying luciferase activity using 40 μL/well Steady Lite Plus substrate (Perkin Elmer) and measured with ViewLux ultraHTS microplate imager (Perkin Elmer). The stimulating activity of each compound on the HEK-ISREluc cells was reported as LEC value, defined as the compound concentration applied to the PBMCs resulting in a luciferase activity at least two fold above the standard deviation of the assay. The LEC in turn indicates the degree of ISRE activation on transfer of a defined amount of PBMC culture medium. Recombinant interferon α-2a (Roferon-A) was used as a standard control compound.

human TLR7 = target: T1, human TLR7 (Homo sapiens, UniProt Q9NYK1); test: TLR7 cellular NFκB-luc reporter assay in transiently transfected HEK293 cells; conditions: lowest effective concentration, 6 hours incubation
T1 construct: expressed in transfected cells; host or cells: HEK293
T1 sequence (Q9NYK1 27-1049): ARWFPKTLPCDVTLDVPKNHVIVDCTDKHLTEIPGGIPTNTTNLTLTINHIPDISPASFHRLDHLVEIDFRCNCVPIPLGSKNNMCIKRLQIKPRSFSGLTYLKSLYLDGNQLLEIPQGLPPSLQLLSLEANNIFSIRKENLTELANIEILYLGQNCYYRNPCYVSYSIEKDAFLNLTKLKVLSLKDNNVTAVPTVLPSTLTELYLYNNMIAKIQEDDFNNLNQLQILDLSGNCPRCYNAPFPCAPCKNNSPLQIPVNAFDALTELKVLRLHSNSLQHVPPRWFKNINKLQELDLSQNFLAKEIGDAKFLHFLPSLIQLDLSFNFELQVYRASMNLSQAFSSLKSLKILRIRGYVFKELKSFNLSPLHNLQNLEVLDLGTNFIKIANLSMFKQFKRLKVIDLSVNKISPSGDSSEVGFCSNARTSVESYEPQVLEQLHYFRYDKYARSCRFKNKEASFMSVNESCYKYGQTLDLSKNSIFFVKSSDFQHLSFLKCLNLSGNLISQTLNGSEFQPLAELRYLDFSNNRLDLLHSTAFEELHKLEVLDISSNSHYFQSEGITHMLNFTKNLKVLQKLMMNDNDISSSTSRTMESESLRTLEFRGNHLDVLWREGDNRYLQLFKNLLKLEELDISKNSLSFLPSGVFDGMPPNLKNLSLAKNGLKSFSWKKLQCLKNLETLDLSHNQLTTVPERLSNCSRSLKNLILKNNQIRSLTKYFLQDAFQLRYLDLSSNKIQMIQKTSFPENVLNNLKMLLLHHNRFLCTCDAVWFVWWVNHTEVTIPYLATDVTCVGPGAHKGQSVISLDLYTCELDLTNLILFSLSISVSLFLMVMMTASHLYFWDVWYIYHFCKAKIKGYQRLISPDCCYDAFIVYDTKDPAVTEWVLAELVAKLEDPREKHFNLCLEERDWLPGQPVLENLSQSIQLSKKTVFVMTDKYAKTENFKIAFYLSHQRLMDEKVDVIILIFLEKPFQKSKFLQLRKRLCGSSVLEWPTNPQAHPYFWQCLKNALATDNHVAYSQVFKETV
Description: (§1) The ability of compounds to activate human TLR7 and/or TLR8 was assessed in a cellular reporter assay using HEK293 cells transiently transfected with a TLR7 or TLR8 expression vector and NFκB-luc reporter construct.
(§2) Briefly, HEK293 cells were grown in culture medium (DMEM supplemented with 10% FCS and 2 mM Glutamine). For transfection of cells in 15 cm dishes, cells were detached with Trypsin-EDTA, transfected with a mix of CMV-TLR7 or TLR8 plasmid (1700 ng), NFκB-luc plasmid (850 ng) and a transfection reagent and incubated for 48 h at 37° C. in a humidified 5% CO2 atmosphere. Transfected cells were then washed in PBS, detached with Trypsin-EDTA and resuspended in medium to a density of 1.25×10^5 cells/mL. Forty microliters of cells were then dispensed into each well in 384-well plates, where 200 nL of compound in 100% DMSO was already present. Following 6 hours incubation at 37° C., 5% CO2, the luciferase activity was determined by adding 15 μL of Steady Lite Plus substrate (Perkin Elmer) to each well and readout performed on a ViewLux ultraHTS microplate imager (Perkin Elmer). Dose response curves were generated from measurements performed in quadruplicates. Lowest effective concentrations (LEC) values, defined as the concentration that induces an effect which is at least two fold above the standard deviation of the assay, were determined for each compound.

human TLR8 = target: T2, human TLR8 (Homo sapiens, UniProt Q9NR97); test: TLR8 cellular NFκB-luc reporter assay in transiently transfected HEK293 cells; conditions: lowest effective concentration, 6 hours incubation
T2 construct: expressed in transfected cells; host or cells: HEK293
T2 sequence (Q9NR97 27-1041): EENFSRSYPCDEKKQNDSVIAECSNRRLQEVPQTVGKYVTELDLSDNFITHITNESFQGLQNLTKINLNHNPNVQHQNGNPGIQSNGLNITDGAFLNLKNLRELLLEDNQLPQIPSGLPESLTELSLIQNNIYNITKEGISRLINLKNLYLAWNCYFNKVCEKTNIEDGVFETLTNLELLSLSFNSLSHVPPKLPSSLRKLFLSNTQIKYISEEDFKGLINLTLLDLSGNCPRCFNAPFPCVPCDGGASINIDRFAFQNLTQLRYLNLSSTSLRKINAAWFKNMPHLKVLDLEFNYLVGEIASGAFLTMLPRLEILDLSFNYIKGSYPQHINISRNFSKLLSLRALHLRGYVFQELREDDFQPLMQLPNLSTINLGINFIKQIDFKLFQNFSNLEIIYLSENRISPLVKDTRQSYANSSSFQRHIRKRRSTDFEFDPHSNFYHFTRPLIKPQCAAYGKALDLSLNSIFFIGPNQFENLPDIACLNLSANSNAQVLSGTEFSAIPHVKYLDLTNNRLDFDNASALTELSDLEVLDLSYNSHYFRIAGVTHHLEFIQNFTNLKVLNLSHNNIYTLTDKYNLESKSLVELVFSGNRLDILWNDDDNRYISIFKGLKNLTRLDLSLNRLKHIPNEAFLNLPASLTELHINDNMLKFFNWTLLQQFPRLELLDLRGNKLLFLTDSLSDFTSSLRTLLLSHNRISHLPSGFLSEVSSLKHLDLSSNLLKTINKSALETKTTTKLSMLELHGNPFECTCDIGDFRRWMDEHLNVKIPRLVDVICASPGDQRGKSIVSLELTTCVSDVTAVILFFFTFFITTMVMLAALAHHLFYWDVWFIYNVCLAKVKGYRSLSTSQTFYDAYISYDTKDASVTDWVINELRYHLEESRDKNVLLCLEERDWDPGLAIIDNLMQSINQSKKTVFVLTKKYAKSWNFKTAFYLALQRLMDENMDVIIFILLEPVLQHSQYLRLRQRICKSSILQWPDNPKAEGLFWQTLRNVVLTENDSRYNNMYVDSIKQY
Description: as §1, §2

| Human TLR 7 (LEC) (human TLR7) | Human TLR 8 (LEC) (human TLR8) | SMILES | minimal effective concentration [1] |
| --- | --- | --- | --- |
| 0.46 µM | 5.22 µM | Cc1cc(CNc2nc(N)nc3cc(F)ccc23)no1 [Compound 13] | 0.12 µM |
| 0.65 µM | >25 µM | Cc1cc(CNc2nc(N)nc3c(F)cccc23)no1 [Compound 14] | 0.13 µM |
| 0.83 µM | 5.51 µM | Nc1nc(N[C@@H](CO)[C@@H](O)c2ccccc2)c2ccccc2n1 [Compound 17] | 0.16 µM |
| 14.7 µM | >25 µM | CNC(=O)c1ccc2c(NC(C)c3ccccn3)nc(N)nc2c1 (stereo not drawn) [Compound 22] | 2.2 µM |
| 6.67 µM | >25 µM | CC(Nc1nc(N)nc2cc(C(=O)N(C)C)ccc12)c1ccccn1 (stereo not drawn) [Compound 23] | 1.62 µM |
| 14.3 µM | 11.0 µM | CC(Nc1nc(N)nc2cc(C(=O)N(C)C(C)C)ccc12)c1ccccn1 (stereo not drawn) [Compound 24] | 1.75 µM |
| 0.63 µM | 9.0 µM | Cc1cc(CNc2nc(N)nc3cccc(CO)c23)no1 [Compound 30] | 0.14 µM |

The next lines start with the compound.

| SMILES | Human TLR 7 (LEC) (human TLR7) | Human TLR 8 (LEC) (human TLR8) | minimal effective concentration [1] |
| --- | --- | --- | --- |
| C[C@@H](Nc1nc(N)nc2cc(C(=O)N3CCCC3)ccc12)c1ccccn1 (single isomer, unassigned) [Compound 28] | 2.24 µM | >25 µM | 1.57 µM |
| Cc1cc(CNc2nc(N)nc3cccc(F)c23)no1 [Compound 11] | 0.45 µM | 3.09 µM | 0.082 µM |
| COc1cccc2nc(N)nc(NCc3cc(C)on3)c12 [Compound 12] | 0.047 µM | 1.94 µM | 0.036 µM |
| COc1cccc2nc(N)nc(N[C@@H](C)[C@H](O)c3ccccc3)c12 [Compound 15] | 0.61 µM | >25 µM | 0.56 µM |
| Cc1cc(CNc2nc(N)nc3cccc(C)c23)no1 [Compound 19] | 0.11 µM | 1.74 µM | 0.051 µM |
| COc1ccc(F)c2nc(N)nc(NCc3cc(C)on3)c12 [Compound 31] | 0.74 µM | >25 µM | 0.46 µM |
